Results as given in patent US12616698B2, “Methods for reducing liver fat and for treating fatty liver disorders” (Corcept Therapeutics Incorporated, priority 2021, dated 2026).

Test system: C57BL/6J male mice
Assay: AMLN diet NASH mouse model, drug provided in the AMLN diet
Format: in vivo
Settings: 60 mg/kg mifepristone in AMLN diet, 8 weeks, vs diet-alone control (FIG. 8A)
Description: Two studies were conducted in C57BL/6J male mice (n=12 per group) maintained on a diet high in fat (40%), cholesterol (2%) and fructose (20%; referred to as the AMLN diet: see, e.g., Tolbol et al., World Journal of Gastroenterology, 24(2):179-194 (2018)) for 42 weeks before dosing with miricorilant was initiated. In the first study, all animals ate the AMLN diet, and received either placebo, 30 mg/kg miricorilant, or 60 mg/kg mifepristone once per day orally. […] All animals received the AMLN diet for 42 weeks prior to receiving their first dose of study drug or placebo. 4 weeks prior to receiving that first dose, a liver biopsy and histological examination of biopsy tissue was performed for each animal; 3 weeks prior to receiving that first dose, animals were randomized into three groups: control, miricorilant, or mifepristone. Only mice with fibrosis stage >=1 and steatosis score >=2 were allowed in the study and the groups were stratified according to liver col1a1 so that each study group had similar overall distributions of liver col1a1 among the mice. All animals continued on the study diet for the 3 weeks following randomization, at which time study drug or placebo administration began. All animals received their assigned drugs for 8 weeks (the 8 week in vivo study period). At 56 days (week 8) after initiation of drug administration, plasma ALT, AST, triglycerides, total cholesterol, and miricorilant levels were measured, and animals were sacrificed, liver necropsies were performed, liver histological ((NAFLD Activity Score, Fibrosis Stage, steatosis (scored using hematoxylin and eosin staining (HE)), col1a (scored using immunohistochemistry (IHC)) and Galectin-3 (IHC)) and liver biochemical measurements (including liver triglycerides and total cholesterol) were made, and liver and plasma samples were obtained for genetic ((e.g., RNA sequencing) and other analyses.
Thus, in these studies, the mice were subjected to a liver biopsy approximately 4 weeks before initiation of dosing with miricorilant and only mice with confirmed fibrosis (fibrosis stage ≥1) and steatosis (score ≥2) were entered into the study. At the end of the dosing period, blood samples were collected for determination of plasma ALT, AST, triglycerides, total cholesterol, and miricorilant. Liver samples were collected for analysis of triglycerides, total cholesterol, hydroxyproline, and histopathology. Body weight and food consumption were monitored throughout the study.
Type I collagen IHC staining Type I collagen (Southern Biotech, Cat. 1310-01) IHC were performed using standard procedures. Briefly, after antigen retrieval and blocking of endogenous peroxidase activity, slides were incubated with primary antibody. The primary antibody was detected using a polymeric HRP-linker antibody conjugate. Next, the primary antibody was visualized with DAB as chromogen. Finally, sections were counterstained in hematoxylin and cover-slipped.
Liver Galectin-3 content Galectin-3 (Biolegend, Cat. #125402) IHC was performed using standard procedures. Briefly, after antigen retrieval and blocking of endogenous peroxidase activity, slides were incubated with primary antibody. The primary antibody was detected using a linker secondary antibody followed by amplification using a polymeric HRP-linker antibody conjugate. Next, the primary antibody was visualized with DAB as chromogen. Finally, sections were counterstained in hematoxylin and cover-slipped.
Total liver col1a1 was evaluated from liver samples stained with anti-type I collagen (col1a1) (Southern Biotech, cat. 1310-01) at the end of the treatment period (typically using low power (20×) magnification). Galectin-3 content was evaluated from images of liver samples stained with anti-Galectin-3 (BioLegend, Cat. 125402) at the end of the treatment period (typically using low power (20×) magnification). Terminal relative (left) and total (right) liver type I Collagen (Col1a1) quantification was determined by morphometry. […]

CC#C[C@]1(O)CC[C@H]2[C@@H]3CCC4=CC(=O)CCC4=C3[C@@H](c3ccc(N(C)C)cc3)C[C@@]21C [mifepristone, reference compound]
Liver weight at termination of the study: significantly increased
